In patent US20020045669A1, “Anti-arrhythmic composition and methods of treatment” (priority 2000, published 2002):
Entries after “also recorded” stand apart in the source; their conditions may differ.

Experiments:
[1] = system: DOCA/saline pre-treated rats with isoproterenol-induced arrhythmia; experiment: Arrhythmic reversal studies (established isoproterenol arrhythmia); type: in vivo, rat; details: i.v. bolus at one-half of the effective s.c. dose, five minutes after isoproterenol
Method: The animals were implanted with a 25 mg pellet of DOCA and maintained on the 1% saline as their drinking fluid as discussed above. The animals were anesthetized with Avertin and prepared for the recording of blood pressure and the EKG. In addition, the animal's left jugular vein was also cannulated with PE-50 tubing. The tubings were filled with saline and exteriorized dorsally between the animal's shoulders. Isoproterenol was administered s.c. at a dose of 150 μg/kg and an arrhythmia was allowed to develop for five minutes. […] Continuous blood pressure, heart rate and EKG readings were obtained. Additional Avertin was given as needed to maintain anesthesia. The hearts of the animals were perfused with buffered formalin immediately after the onset of ventricular fibrillation or one hour after the administration of isoproterenol.
(§1) Two kinds of anti-arrhythmic experiments were carried out, both prophylaxis and reversal studies. DOCA-treated animals were either first given the test compounds s.c. followed twenty minutes later by isoproterenol (prevention studies) or isoproterenol followed by the test compound given intravenously after five minutes (reversal studies). The time frames were chosen based on two issues: previous experience with the pharmacokinetics of polyamine analogues and the time required for isoproterenol to induce cardiac abnormalities and death in DOCA-treated rodents.

[2] = system: DOCA/saline pre-treated rats challenged with isoproterenol; experiment: Prevention of isoproterenol-induced arrhythmia and mortality in DOCA/saline pre-treated rats; type: in vivo, rat; details: for % SURVIVAL / ARRHYTHMIA (number of animals): 20 min before isoproterenol 150 μg/kg s.c.
Method: Briefly, rats were anesthetized with sodium pentobarbital (55 mg/kg. i.p.), and a 25 mg pellet of desoxycorticosterone acetate (DOCA) was implanted s.c. in the axillary region. The rats were allowed to recover from the anesthetic and returned to their home cages. The animals were given commercial rat chow and a 1% solution of saline as their drinking fluid ad libitum. The animals were maintained on this regimen for approximately thirty days.
Twenty minutes later, the rats were challenged with a single s.c. dose of isoproterenol, 150 μg/kg. The animals were closely monitored for one hour and any obvious arrhythmic episodes or mortalities were recorded.
as §1

[3] = system: mice exposed to deep chloroform anesthesia; experiment: Chloroform anesthesia-induced cardiac arrhythmia (Lawson procedure); type: in vivo; details: 100 mg/kg i.p., thirty minutes before chloroform; observed 15 minutes; <2 of three = significant protection
Method: In this procedure [Lawson, J. Pharmacol. Exer. Therap., Vol. 160, pages 22-31 (1968)], the test substance [diethylhomospermine (DEHSPM)] is administered i.p. (100 mg/kg) to a group of three mice thirty minutes before exposure to deep chloroform anesthesia and observed during the ensuing 15-minute period.

normotensive rats = details: earlier results; cited from earlier work
[4] = system: DOCA/saline pre-treated rats; experiment: Evaluation of blood pressure, heart rate and EKG in DOCA/saline rats; type: in vivo, rat; details: continuous monitoring, compound given s.c.
Method: Blood pressure and heart rate parameters, as well as an EKG, were evaluated for compounds displaying anti-arrhythmic properties. The animals were implanted with DOCA and maintained on 1% saline as their drinking fluid as discussed above. The animals were anesthetized with Avertin (tribromoethanol, 2.5%), 1 ml/100 g given i.p. and prepared for the recording of blood pressure and the EKG. To allow for the direct measurement of blood pressure, the animals's left carotid artery was cannulated with PE-50 tubing. The tubing was filled with saline and exteriorized dorsally between the animal's shoulders.
After the surgery was completed, the catheter in the carotid artery was connected to a blood pressure transducer (ADInstruments, Inc., Milford, Mass.). To allow for the recording of the EKG, 22 gauge needles were placed s.c. at the rat's left shoulder, right shoulder and left leg. The needles were then attached via alligator clips to a MacLab Bio Amplifier (ADInstruments, Inc., Milford, Mass.). […] A baseline blood pressure, heart rate and EKG were obtained, and the compound under investigation was administered s.c. Twenty minutes later, the animals were challenged with a single dose of isoproterenol, 150 μg/kg s.c. Continuous blood pressure, heart rate and EKG readings were obtained. […]

[5] = DOCA/isoproterenol-treated rats, prophylaxis

## CC(C)NCC(O)COc1cccc2ccccc12 (racemic) [Propranolol, d,l-propranolol]
[1]
  EKG pattern after treatment in reversal experiment: reverted to a more normal pattern
  evidence of ischemia in EKG in reversal experiment: some evidence of ischemia
  survival in reversal experiment: survived

## CCNCCCCCCCCCNCC [DE(9), C2H5—NH—(CH2)9—NH—C2H5]
[2]; [5]
  effect on survival / activity in the model (in words): no activity
[2]; dose 115 μmol/kg s.c.
  % SURVIVAL: 0%
  ARRHYTHMIA (number of animals): 5

## CCNCCCCNCCCCNCCCCNCC [DEHSPM(4,4,4), diethylhomospermine]
[3]
  animals exhibiting cardiac arrhythmia (of three mice): one
[2]; [5]
  effect on survival / activity in the model (in words): none of the three polyamine anti-metabolites tested in this model had any effects on the survival
[2]; dose 115 μmol/kg s.c.
  % SURVIVAL: 0%
  ARRHYTHMIA (number of animals): 5
Normotensive rats
  effect on blood pressure: lower blood pressure

## CCNCCCNCCCNCCCNCC [DENSPM(3,3,3), diethylnorspermine]
[2]; [5]
  effect on survival / activity in the model (in words): none of the three polyamine anti-metabolites tested in this model had any effects on the survival
[2]; dose 231 μmol/kg s.c.
  % SURVIVAL: 0%
  ARRHYTHMIA (number of animals): 5
Normotensive rats
  effect on blood pressure: lower blood pressure

## CCNCCCNCCCCNCCCNCC [DESPM(3,4,3), diethylspermine]
[2]; [5]
  effect on survival / activity in the model (in words): none of the three polyamine anti-metabolites tested in this model had any effects on the survival
[2]; dose 115 μmol/kg s.c.
  % SURVIVAL: 0%
  ARRHYTHMIA (number of animals): 5

## FC(F)(F)CNCCCNCCCCNCCCNCC(F)(F)F [FDESPM, Di-β,β,β-trifluoroethylspermine]
[2]; [5]
  anti-arrhythmic properties (in words): some anti-arrhythmic prophylactic behavior
[2]; DOCA/isoproterenol-treated rats, prophylaxis, dose not given
  animals surviving: 40%
[2]; dose 115 μmol/kg s.c.
  % SURVIVAL: 40%
  ARRHYTHMIA (number of animals): 7

## C(CNC1CCNCC1)CNC1CCNCC1 [PIP(3,3,3)]
[2]; [5]
  effect on survival / activity in the model (in words): nor was it found to be active in this model
[2]; dose 115 μmol/kg s.c.
  % SURVIVAL: 0%
  ARRHYTHMIA (number of animals): 5

## c1cc(NCCCNc2ccncc2)ccn1 [PYR(3,3,3)]
[4]
  effects on blood pressure and heart rate: No appreciable effects on blood pressure and heart rate
[1]
  EKG pattern after treatment in reversal experiment: reverted to a normal appearance
  evidence of ischemia in EKG in reversal experiment: little to no evidence of ischemia
[2]; [5]
  anti-arrhythmic properties (in words): presented with anti-arrhythmic properties; also recorded: performed best
[2]; dose 14 μmol/kg s.c.
  % SURVIVAL: 40%
  ARRHYTHMIA (number of animals): 5
[2]; dose 28 μmol/kg s.c.
  % SURVIVAL: 40%
  ARRHYTHMIA (number of animals): 5
[2]; dose 59 μmol/kg s.c.
  % SURVIVAL: 60%
  ARRHYTHMIA (number of animals): 4
[2]; dose 115 μmol/kg s.c.
  % SURVIVAL: 100%
  ARRHYTHMIA (number of animals): 2

## c1cc(NCCCCNc2ccncc2)ccn1 [PYR(3,4,3)]
[2]; [5]
  anti-arrhythmic properties (in words): presented with anti-arrhythmic properties
[2]; dose 59 μmol/kg s.c.
  % SURVIVAL: 60%
  ARRHYTHMIA (number of animals): 2
[2]; dose 115 μmol/kg s.c.
  % SURVIVAL: 60%
  ARRHYTHMIA (number of animals): 2
[2]; dose 231 μmol/kg s.c.
  % SURVIVAL: 80%
  ARRHYTHMIA (number of animals): 2

## c1cc(CNCCCCNCc2ccncc2)ccn1 [PYR(4,4,4)]
[2]; [5]
  anti-arrhythmic properties (in words): presented with anti-arrhythmic properties
[2]; dose 115 μmol/kg s.c.
  % SURVIVAL: 0%
  ARRHYTHMIA (number of animals): 5
[2]; dose 231 μmol/kg s.c.
  % SURVIVAL: 40%
  ARRHYTHMIA (number of animals): 2

## NCCCCN [Putrescine(4), Putrescine, reference compound]
[2]; [5]
  effect on survival / activity in the model (in words): no effect on survival
[2]; dose 115 μmol/kg s.c.
  % SURVIVAL: 0%
  ARRHYTHMIA (number of animals): 5
[2]; dose 1240 μmol/kg s.c.
  % SURVIVAL: 0%
  ARRHYTHMIA (number of animals): 5
[2]; dose 1861 μmol/kg s.c.
  % SURVIVAL: 0%
  ARRHYTHMIA (number of animals): 5
